According to ChEMBL document CHEMBL1201862, “PubChem BioAssay data set” (2004):
Calls of active or inactive are those of the source.

Columns and labels:
HEK293 = assay: cells; conditions: Homo sapiens
Tumor necrosis factor = Tumor necrosis factor (Homo sapiens, UniProt P01375); assay: TNFa-triggered NF-kB activation inhibitors, SAR follow-up, cell-based, revised (AID 2337); type: functional
[1] = target: T1, Nucleotide-binding oligomerization domain-containing protein 1 (Homo sapiens, UniProt Q9Y239); assay: NOD1 signaling inhibitors, SAR follow-up, revised (AID 2333); type: functional
T1 sequence (Q9Y239 whole entry): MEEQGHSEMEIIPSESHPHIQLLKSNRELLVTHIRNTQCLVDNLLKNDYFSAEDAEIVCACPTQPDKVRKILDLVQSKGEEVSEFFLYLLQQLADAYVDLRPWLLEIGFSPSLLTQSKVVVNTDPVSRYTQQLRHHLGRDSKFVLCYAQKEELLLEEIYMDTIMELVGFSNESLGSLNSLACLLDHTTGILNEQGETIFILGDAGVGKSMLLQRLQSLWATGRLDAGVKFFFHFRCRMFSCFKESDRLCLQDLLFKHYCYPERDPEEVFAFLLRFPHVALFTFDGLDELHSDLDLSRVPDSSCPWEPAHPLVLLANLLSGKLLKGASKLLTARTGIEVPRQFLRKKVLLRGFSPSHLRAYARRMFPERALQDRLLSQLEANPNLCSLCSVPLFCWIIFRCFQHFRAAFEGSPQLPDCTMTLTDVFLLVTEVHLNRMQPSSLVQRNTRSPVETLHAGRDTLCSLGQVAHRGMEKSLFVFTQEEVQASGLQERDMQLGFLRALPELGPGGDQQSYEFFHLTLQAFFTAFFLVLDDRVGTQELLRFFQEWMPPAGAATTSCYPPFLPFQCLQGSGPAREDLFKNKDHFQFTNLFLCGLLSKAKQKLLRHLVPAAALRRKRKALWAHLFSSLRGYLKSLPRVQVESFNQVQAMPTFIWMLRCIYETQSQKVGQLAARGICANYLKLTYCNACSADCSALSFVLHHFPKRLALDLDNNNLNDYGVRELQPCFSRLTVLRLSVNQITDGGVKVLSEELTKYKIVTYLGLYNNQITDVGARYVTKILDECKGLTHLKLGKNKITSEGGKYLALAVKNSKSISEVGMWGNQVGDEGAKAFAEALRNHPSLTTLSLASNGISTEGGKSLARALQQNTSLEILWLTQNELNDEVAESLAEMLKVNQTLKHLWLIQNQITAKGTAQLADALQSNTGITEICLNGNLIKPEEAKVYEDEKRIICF

[2] = HEp-2 cell cytotoxicity, dose response, cytotoxicity control for RSV inhibitor project, HTS (AID 2410); type: functional; conditions: human respiratory syncytial virus
Vero = assay: cells; type: functional, cell-based; conditions: Chlorocebus sabaeus
[3] = insulin promoter down-regulators in MIN6 cells, imaging, high-content screening, mouse beta cells (AID 1628); type: functional
[4] = cytotoxicity in MIN6 insulinoma cells, dose response, cytotoxicity control, cell-based, mouse insulinoma (AID 2122); type: functional;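 further: confirmatory high-throughput counterscreen run to flag cytotoxic compounds; mouse MIN-6 beta cells carrying an insulin promoter eGFP reporter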
[5] = target: T2, E3 ubiquitin-protein ligase XIAP (Homo sapiens, UniProt P98170); assay: Counter Screen using XIAP-Bir3 for Chemical Antagonists of Bir1/2 domains of IAP-family anti-apoptotic proteins. [Related pubchem assays (depositor defined):AID1018, AID1449, AID1514, AID1638, AID1749, AID1750, AID488957, AID488963]
T2 sequence (P98170 whole entry): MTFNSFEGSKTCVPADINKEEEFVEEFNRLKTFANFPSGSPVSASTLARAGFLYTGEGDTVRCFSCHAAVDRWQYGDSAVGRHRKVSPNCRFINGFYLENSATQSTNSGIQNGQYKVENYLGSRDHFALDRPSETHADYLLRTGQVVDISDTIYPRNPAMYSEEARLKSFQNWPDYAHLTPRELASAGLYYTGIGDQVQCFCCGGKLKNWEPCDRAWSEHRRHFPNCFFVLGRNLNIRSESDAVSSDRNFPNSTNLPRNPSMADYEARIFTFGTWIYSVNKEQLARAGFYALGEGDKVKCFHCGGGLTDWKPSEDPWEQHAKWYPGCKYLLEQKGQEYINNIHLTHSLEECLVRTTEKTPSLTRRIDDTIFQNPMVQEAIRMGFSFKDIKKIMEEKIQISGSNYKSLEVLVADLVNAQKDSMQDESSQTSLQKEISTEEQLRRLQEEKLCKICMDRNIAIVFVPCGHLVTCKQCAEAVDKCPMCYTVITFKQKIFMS

[6] = target: T2, E3 ubiquitin-protein ligase XIAP; assay: XIAP antagonists, biochemical, IAP family, fluorescence polarization (AID 1018); type: functional
[7] = target: T3, Type-1 angiotensin II receptor (Homo sapiens, UniProt P30556); assay: AT1 receptor antagonists, dose response, selectivity assay for APJ receptor antagonist project, cell-based, uHTS hits (AID 463214); type: functional;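 further: antagonist potency against angiotensin II stimulated AT1 response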
T3 sequence (P30556 whole entry): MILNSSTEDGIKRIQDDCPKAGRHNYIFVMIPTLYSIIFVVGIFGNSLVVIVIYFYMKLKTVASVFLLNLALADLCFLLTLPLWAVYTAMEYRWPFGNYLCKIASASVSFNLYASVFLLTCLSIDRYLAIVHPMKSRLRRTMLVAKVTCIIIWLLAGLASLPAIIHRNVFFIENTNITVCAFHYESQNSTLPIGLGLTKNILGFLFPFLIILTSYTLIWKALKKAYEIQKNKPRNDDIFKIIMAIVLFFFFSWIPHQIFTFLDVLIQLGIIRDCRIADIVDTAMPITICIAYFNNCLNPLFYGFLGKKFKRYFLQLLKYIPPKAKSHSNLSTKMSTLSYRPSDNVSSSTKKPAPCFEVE

Beta-galactosidase = Beta-galactosidase (Escherichia coli, UniProt Q8VNN2); assay: PubChem AID 485352; type: functional
Chain of Beta-galactosidase (Q8VNN2 whole entry): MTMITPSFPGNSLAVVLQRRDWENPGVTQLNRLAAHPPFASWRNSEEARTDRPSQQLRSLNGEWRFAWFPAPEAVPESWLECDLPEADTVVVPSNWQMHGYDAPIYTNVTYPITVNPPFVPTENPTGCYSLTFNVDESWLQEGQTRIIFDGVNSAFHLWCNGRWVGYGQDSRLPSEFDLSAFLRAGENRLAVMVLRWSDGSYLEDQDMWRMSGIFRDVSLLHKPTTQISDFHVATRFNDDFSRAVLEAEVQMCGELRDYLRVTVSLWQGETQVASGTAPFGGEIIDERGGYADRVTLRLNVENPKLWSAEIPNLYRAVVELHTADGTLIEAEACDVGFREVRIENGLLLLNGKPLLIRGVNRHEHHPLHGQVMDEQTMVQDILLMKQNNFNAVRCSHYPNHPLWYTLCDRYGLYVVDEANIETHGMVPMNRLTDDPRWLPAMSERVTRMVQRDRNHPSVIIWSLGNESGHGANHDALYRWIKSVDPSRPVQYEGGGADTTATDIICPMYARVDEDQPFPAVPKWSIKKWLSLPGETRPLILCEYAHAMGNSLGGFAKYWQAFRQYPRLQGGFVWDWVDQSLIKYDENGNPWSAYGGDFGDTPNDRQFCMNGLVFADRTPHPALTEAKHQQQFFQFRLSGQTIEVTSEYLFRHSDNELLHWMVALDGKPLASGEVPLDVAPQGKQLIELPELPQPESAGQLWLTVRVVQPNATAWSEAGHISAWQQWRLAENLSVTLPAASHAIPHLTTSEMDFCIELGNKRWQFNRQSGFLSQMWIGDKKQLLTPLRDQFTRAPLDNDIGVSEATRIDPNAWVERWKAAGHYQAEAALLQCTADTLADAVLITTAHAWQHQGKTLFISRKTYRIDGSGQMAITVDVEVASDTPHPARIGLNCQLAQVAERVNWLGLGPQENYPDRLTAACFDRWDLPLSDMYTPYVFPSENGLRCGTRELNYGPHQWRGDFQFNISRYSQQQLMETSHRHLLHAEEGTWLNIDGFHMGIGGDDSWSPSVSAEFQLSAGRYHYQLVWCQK

Exodeoxyribonuclease V = target: T4, Exodeoxyribonuclease V (Escherichia coli (strain K12), UniProt P04993+P07648+P08394); assay: E. coli RecBCD inhibitors, dose response, counter-screen for AddAB inhibitor project, absorbance, V66 E. coli, mutant T4 phage (AID 492957); type: functional, cell-based, Escherichia coli str. K-12 substr. MG1655
T4 sequence (P04993 whole entry): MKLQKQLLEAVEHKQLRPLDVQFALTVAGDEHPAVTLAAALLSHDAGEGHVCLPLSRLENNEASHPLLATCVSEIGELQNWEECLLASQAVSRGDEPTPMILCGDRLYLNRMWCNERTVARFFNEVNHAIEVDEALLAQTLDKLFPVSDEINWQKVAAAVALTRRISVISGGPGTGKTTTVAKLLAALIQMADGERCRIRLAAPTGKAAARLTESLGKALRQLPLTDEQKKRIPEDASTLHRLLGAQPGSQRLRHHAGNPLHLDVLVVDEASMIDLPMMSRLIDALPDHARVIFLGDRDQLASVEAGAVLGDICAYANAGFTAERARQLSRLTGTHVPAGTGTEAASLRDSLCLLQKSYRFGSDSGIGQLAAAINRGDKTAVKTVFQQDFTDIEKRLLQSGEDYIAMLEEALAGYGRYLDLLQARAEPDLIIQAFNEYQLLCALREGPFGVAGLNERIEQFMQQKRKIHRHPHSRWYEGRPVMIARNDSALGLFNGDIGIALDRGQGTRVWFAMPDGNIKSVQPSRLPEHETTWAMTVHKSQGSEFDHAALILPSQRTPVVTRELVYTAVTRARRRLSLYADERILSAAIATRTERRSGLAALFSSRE
T4 sequence (P07648 whole entry): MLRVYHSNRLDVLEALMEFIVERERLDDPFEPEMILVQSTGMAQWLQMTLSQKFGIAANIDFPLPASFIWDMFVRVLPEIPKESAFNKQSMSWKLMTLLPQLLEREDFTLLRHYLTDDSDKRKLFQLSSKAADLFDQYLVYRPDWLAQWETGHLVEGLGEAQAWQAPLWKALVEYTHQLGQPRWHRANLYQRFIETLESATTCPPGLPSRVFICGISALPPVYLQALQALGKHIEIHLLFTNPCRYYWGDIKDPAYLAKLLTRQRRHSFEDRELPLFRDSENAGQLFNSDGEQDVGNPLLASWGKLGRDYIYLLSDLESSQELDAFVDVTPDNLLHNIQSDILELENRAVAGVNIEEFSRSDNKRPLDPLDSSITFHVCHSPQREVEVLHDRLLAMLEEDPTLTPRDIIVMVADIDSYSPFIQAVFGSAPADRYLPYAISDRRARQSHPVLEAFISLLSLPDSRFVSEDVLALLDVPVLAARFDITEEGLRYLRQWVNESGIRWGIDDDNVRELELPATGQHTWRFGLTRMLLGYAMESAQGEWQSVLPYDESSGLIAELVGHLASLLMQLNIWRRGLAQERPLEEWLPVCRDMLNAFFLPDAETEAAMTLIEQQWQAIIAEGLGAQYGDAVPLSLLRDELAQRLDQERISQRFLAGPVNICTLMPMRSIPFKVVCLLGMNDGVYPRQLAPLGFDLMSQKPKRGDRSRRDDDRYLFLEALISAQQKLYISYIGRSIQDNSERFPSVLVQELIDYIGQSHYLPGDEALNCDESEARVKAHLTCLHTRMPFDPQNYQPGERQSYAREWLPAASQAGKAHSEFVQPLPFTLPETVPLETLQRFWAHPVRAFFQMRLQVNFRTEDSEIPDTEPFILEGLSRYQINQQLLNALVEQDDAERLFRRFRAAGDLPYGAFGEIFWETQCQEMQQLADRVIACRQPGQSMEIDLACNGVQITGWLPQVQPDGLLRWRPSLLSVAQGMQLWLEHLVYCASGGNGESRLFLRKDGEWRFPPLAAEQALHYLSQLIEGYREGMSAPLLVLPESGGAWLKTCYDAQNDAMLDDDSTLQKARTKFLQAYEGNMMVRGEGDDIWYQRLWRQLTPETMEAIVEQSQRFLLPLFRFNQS
T4 sequence (P08394 whole entry): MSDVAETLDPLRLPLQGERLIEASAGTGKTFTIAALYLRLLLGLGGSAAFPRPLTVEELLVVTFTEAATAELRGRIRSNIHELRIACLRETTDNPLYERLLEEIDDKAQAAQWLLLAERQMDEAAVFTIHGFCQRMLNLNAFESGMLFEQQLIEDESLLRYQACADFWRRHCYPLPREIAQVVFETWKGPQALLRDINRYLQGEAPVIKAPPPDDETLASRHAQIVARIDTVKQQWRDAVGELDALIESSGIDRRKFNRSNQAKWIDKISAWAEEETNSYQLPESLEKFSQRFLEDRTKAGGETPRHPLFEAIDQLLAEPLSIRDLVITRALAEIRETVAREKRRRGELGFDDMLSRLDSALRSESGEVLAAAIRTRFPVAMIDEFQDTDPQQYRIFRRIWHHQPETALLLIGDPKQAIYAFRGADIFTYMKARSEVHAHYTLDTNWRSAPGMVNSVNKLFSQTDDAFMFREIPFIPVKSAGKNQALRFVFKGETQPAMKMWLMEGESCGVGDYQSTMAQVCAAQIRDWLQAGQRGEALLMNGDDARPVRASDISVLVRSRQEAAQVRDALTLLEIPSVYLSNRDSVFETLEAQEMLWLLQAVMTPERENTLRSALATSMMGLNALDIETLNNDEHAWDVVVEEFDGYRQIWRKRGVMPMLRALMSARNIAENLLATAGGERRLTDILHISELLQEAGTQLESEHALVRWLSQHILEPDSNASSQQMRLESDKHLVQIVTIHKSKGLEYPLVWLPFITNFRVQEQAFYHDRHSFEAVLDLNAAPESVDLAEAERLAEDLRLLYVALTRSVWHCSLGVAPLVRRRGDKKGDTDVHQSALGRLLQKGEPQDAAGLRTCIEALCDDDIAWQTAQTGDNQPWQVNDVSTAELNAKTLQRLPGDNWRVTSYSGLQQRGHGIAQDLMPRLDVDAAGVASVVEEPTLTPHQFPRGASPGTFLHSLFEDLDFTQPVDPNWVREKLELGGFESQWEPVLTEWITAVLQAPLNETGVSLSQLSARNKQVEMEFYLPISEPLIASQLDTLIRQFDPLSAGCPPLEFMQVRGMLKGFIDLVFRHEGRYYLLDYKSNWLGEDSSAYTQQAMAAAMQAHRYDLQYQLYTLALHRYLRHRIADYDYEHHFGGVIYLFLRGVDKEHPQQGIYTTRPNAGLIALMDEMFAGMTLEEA

[8] = Counterscreen for AddAB inhibitors: absorbance-based bacterial cell-based high throughput dose response assay for inhibitors of bacterial viability. [Related pubchem assays (depositor defined):AID435030, AID449728, AID449731, AID488942, AID488955, AID488956]; type: functional
[9] = target: T5, Ubiquitin-conjugating enzyme E2 N (Homo sapiens, UniProt P61088); type: functional;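 further: Dose-response confirmation in a TR-FRET assay detecting UBC13-driven polyubiquitin chain formation, inhibition measured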
T5 sequence (P61088 whole entry): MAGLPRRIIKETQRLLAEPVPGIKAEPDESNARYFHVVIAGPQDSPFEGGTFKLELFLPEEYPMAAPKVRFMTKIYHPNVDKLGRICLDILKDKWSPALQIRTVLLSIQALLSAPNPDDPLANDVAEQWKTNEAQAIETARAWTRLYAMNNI

Troponin, cardiac muscle = Troponin, cardiac muscle (Homo sapiens, UniProt P19429+P45379+P63316); assay: Fluorescence-based biochemical high throughput dose response assay for activators of the calcium sensitivity of cardiac Regulated Thin Filaments (RTF). [Related pubchem assays (depositor defined):AID493008, AID493018, AID504382, AID504383]; type: protein-complex assay

Chain of Tumor necrosis factor (P01375 whole entry, the tested form may be a part): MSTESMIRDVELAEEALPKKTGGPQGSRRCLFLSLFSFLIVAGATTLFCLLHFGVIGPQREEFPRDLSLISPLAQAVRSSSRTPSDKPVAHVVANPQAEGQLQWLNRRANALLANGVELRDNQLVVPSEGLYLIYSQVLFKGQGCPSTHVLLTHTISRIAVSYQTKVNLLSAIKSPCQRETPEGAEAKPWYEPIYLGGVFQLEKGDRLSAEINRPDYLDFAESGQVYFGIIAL

## CCCOc1ccc(C=NN=C(S)Nc2ccccc2[N+](=O)[O-])c(O)c1
HEK293
  IC50: > 20 µM (inactive)
Tumor necrosis factor
  IC50: 0.88 µM (active)
[1]
  IC50: 7.73 µM (active)

## Nc1ccc(C(=O)OCCCc2nc3cc4ccccc4cc3[nH]2)cc1
[2]
  CC50: 46 µM (active)
Vero
  IC50: > 25 µM (active)

## Brc1ccc2[nH]c3c(c2c1)CCC3
Vero
  IC50: > 25 µM (active)

## c1ccc(N2CCN(Cc3ccnc4ccccc34)CC2)cc1
[3]
  IC50: 3.42 µM (active)
[4]
  IC50: 2.84 µM (active)

## COc1ccc2c(c1)CCc1c(C(=O)Nc3cc(C)n(Cc4ccc(Cl)cc4)n3)noc1-2
[5]
  IC50: > 100 µM (inactive)
[6]
  IC50: > 100 µM (not active)

## C(#Cc1ccccc1)C[N+]1(CC#Cc2cccc3ccccc23)CCOCC1
[3]
  IC50: 2.29 µM (active)
[4]
  IC50: 2.19 µM (active)

## O=C(COC(=O)c1cc2ccccc2oc1=O)c1cccc([N+](=O)[O-])c1
[7]
  IC50: > 40 µM (not active)
Beta-galactosidase
  EC50: > 40 µM (inactive)

## COc1cccc(N2CC(C)Cn3c2nc2c3c(=O)[nH]c(=O)n2C)c1 (centres undefined)
[7]
  IC50: > 40 µM (not active)
Beta-galactosidase
  EC50: > 40 µM (inactive)

## NC(=O)c1ccsc1NC(=O)COC(=O)c1ccc([N+](=O)[O-])o1
Exodeoxyribonuclease V
  IC50: > 119 µM (inactive)
[8]
  IC50: > 39.5 µM (inactive)

## CCC[C@@H](CN1CCC[C@H]1CN1C(N)=NC[C@@H]1Cc1ccccc1)N1C[C@@H](Cc2ccccc2)N(CCCC2CCCC2)C1=N
[9]
  IC50: > 20 µM (inactive)
Troponin, cardiac muscle
  EC50: > 71.4 µM (inactive)

## COc1cccc(/C(O)=C/C=N/c2cc(C)ccc2O)c1
[5]
  IC50: > 100 µM (inactive)
[6]
  IC50: > 100 µM (not active)

## CC/C(=N\NS(C)(=O)=O)c1ccccc1
[5]
  IC50: > 100 µM (inactive)
[6]
  IC50: > 100 µM (not active)
